Results reported in publication PMC12396409, “Screening and hit evaluation of a microbial metabolite library against the pathogenic Plasmodium falciparum and Toxoplasma gondii parasites” (International Journal for Parasitology: Drugs and Drug …, 2025).
Where two headings read alike, the source gives them in different places.

Legend:
[1] = system: T. gondii RH strain (RH-Tub-eYFP) tachyzoites; assay: microbe, parasite or virus in culture; format: cell-based, Toxoplasma gondii; conditions: 72 h, % growth; for percent parasite growth at 2 µg/mL: Toxoplasma gondii
[2] = system: P. falciparum 3D7 parasites; assay: P. falciparum growth inhibition assay, 2-cycle (120 h treatment), delayed-death screen and dose-response; format: cell-based, Plasmodium falciparum; conditions: % growth; for activity at 2 µg/mL: Plasmodium falciparum, 3D7, 120 h
[3] = system: P. falciparum 3D7 parasites; assay: P. falciparum growth inhibition assay, 1-cycle (72 h treatment), SYBR DNA staining (library screen at 2 μg/mL and dose-response); format: cell-based, Plasmodium falciparum; conditions: % growth; for activity at 2 µg/mL: Plasmodium falciparum, 3D7, 72 h
[4] = library screen at 2 μg/mL, replicate 1
[5] = library screen at 2 μg/mL, replicate 2
[6] = library screen at 2 μg/mL, 120 h, replicate 1
[7] = library screen at 2 μg/mL, 120 h, replicate 2
[8] = library screen at 2 μg/mL, 72 h, replicate 1
[9] = library screen at 2 μg/mL, 72 h, replicate 2
[10] = T. gondii, parasite screen at 2 μg/mL, replicate 1
[11] = T. gondii, parasite screen at 2 μg/mL, replicate 2
[12] = P. falciparum 3D7, 120 h, parasite screen at 2 μg/mL, replicate 1
[13] = P. falciparum 3D7, 120 h, parasite screen at 2 μg/mL, replicate 2
[14] = P. falciparum 3D7, 72 h, parasite screen at 2 μg/mL, replicate 1
[15] = P. falciparum 3D7, 72 h, parasite screen at 2 μg/mL, replicate 2
[16] = library screen at 2 μg/mL, replicate 1, read-out: Tg_72h_%Growth_Rep1
[17] = library screen at 2 μg/mL, replicate 2, read-out: Tg_72h_%Growth_Rep2
[18] = library screen at 2 μg/mL, 120 h, replicate 1, read-out: Pf_120h_%Growth_Rep1
[19] = library screen at 2 μg/mL, 120 h, replicate 2, read-out: Pf_120h_%Growth_Rep2
[20] = library screen at 2 μg/mL, 72 h, replicate 1, read-out: Pf_72h_%Growth_Rep1
[21] = library screen at 2 μg/mL, 72 h, replicate 2, read-out: Pf_72h_%Growth_Rep2

## CNC[C@@H]1CC[C@@H](N)[C@@H](O[C@H]2[C@H](O)[C@@H](O[C@H]3OC[C@](C)(O)[C@H](NC)[C@H]3O)[C@H](N)C[C@@H]2N)O1 [Gentamicin C2b]
[1]; [4]
  Tg_72h_%Growth_Rep1: 152.97%
[1]; [5]
  Tg_72h_%Growth_Rep2: 86.04%
[2]; [6]
  Pf_120h_%Growth_Rep1: 7.99%
[2]; [7]
  Pf_120h_%Growth_Rep2: 7.07%
[3]; [8]
  Pf_72h_%Growth_Rep1: 6.39%
[3]; [9]
  Pf_72h_%Growth_Rep2: 7.30%

## O=C1Cc2ccccc2N1 [BIA-O1735]
[1]; [10]
  Tg_72h_%Growth_Rep1: 124.39%
[1]; [11]
  Tg_72h_%Growth_Rep2: 90.71%
[2]; [12]
  Pf_120h_%Growth_Rep1: 73.62%
[2]; [13]
  Pf_120h_%Growth_Rep2: 127.66%
[3]; [14]
  Pf_72h_%Growth_Rep1: 82.92%
[3]; [15]
  Pf_72h_%Growth_Rep2: 80.95%

## CC[C@H]1OC(=O)[C@H](C)[C@@H](O[C@H]2C[C@@](C)(OC)[C@@H](O)[C@H](C)O2)[C@H](C)[C@@H](O[C@@H]2O[C@H](C)C[C@H](N(C)C)[C@H]2O)[C@](C)(O)C[C@@H](C)[C@@H]2N[C@@H](COCCOC)O[C@H]([C@H]2C)[C@]1(C)O [Dirithromycin]
[1]; [16]
  percent parasite growth at 2 µg/mL: 67.5%
[1]; [17]
  percent parasite growth at 2 µg/mL: 74.8%
[2]; [18]
  activity at 2 µg/mL: 62.1%
[2]; [19]
  activity at 2 µg/mL: 48.4%
[3]; [20]
  activity at 2 µg/mL: 80.4%
[3]; [21]
  activity at 2 µg/mL: 73.2%

## CO[C@H]1C[C@H](O[C@H]2[C@H](C)O[C@@H](O[C@@H]3/C(C)=C/C[C@@H]4C[C@@H](C[C@]5(C=C[C@H](C)[C@@H](C6CCCCC6)O5)O4)OC(=O)C4=C[C@H](C)[C@@H](O)[C@H]5OC/C(=C\C=C[C@@H]3C)[C@@]45O)C[C@@H]2OC)O[C@@H](C)[C@@H]1O [Doramectin, delta2-]
[1]; [4]
  Tg_72h_%Growth_Rep1: 85.18%
[1]; [5]
  Tg_72h_%Growth_Rep2: 104.19%
[2]; [6]
  Pf_120h_%Growth_Rep1: 4.07%
[2]; [7]
  Pf_120h_%Growth_Rep2: 0.97%
[3]; [8]
  Pf_72h_%Growth_Rep1: 3.28%
[3]; [9]
  Pf_72h_%Growth_Rep2: 1.57%

## COc1cccc2c1C(=O)c1c(O)c3c(c(O)c1C2=O)C[C@@](O)(C(=O)CO)C[C@@H]3O[C@H]1C[C@H](N)[C@H](O)[C@H](C)O1 [Doxorubicin]
[1]; [16]
  percent parasite growth at 2 µg/mL: 214%
[1]; [17]
  percent parasite growth at 2 µg/mL: 123%
[2]; [18]
  activity at 2 µg/mL: 15.8%
[2]; [19]
  activity at 2 µg/mL: 35.7%
[3]; [20]
  activity at 2 µg/mL: 51.3%
[3]; [21]
  activity at 2 µg/mL: 57.9%

## COc1cc(C)c(C(=O)O)c(OC)c1 [BIA-O1659]
[1]; [10]
  Tg_72h_%Growth_Rep1: 135.87%
[1]; [11]
  Tg_72h_%Growth_Rep2: 85.39%
[2]; [12]
  Pf_120h_%Growth_Rep1: 91.75%
[2]; [13]
  Pf_120h_%Growth_Rep2: 145.28%
[3]; [14]
  Pf_72h_%Growth_Rep1: 84.80%
[3]; [15]
  Pf_72h_%Growth_Rep2: 98.06%

## CCOC(=O)c1c(C)cc(O)cc1O [Ethyl orsellinate]
[1]; [4]
  Tg_72h_%Growth_Rep1: 128.38%
[1]; [5]
  Tg_72h_%Growth_Rep2: 103.54%
[2]; [6]
  Pf_120h_%Growth_Rep1: 96.78%
[2]; [7]
  Pf_120h_%Growth_Rep2: 106.42%
[3]; [8]
  Pf_72h_%Growth_Rep1: 90.89%
[3]; [9]
  Pf_72h_%Growth_Rep2: 117.50%

## CCCCCC(=O)OC1C(C)OC(OC2C(C)OC(OC3C(CC=O)CC(C)C(O)C=CC=CCC(C)OC(=O)CC(O)C3OC)C(O)C2N(C)C)CC1(C)O (stereo not drawn) [BIA-L1365]
[1]; T. gondii RH, library screen at 2 μg/mL, replicate 1
  Tg_72h_%Growth_Rep1: 22.41%
[1]; T. gondii RH, library screen at 2 μg/mL, replicate 2
  Tg_72h_%Growth_Rep2: 22.70%
[2]; P. falciparum 3D7, 120 h, library screen at 2 μg/mL, replicate 1
  Pf_120h_%Growth_Rep1: 2.62%
[2]; P. falciparum 3D7, 120 h, library screen at 2 μg/mL, replicate 2
  Pf_120h_%Growth_Rep2: 15.42%
[3]; P. falciparum 3D7, 72 h, library screen at 2 μg/mL, replicate 1
  Pf_72h_%Growth_Rep1: 29.67%
[3]; P. falciparum 3D7, 72 h, library screen at 2 μg/mL, replicate 2
  Pf_72h_%Growth_Rep2: 36.72%
